Laboratory results from ChEMBL document CHEMBL1201862, “PubChem BioAssay data set” (2004).
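48-hour exposure; five concentrations; linearly interpolated endpoints. The concentration for 50% growth inhibition is given as GI50.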 Activity calls are given as the source filed them. No stated cut-off is given here; in the data, active = GI50 up to about 1.1 µM and inactive = higher.

Key:
Assay in all cases: NCI tumour cell line growth inhibition, 48 h
IGROV-1 = test system: IGROV-1
SK-OV-3 = test system: SK-OV-3
SW-620 = test system: SW-620
EKVX = test system: EKVX
786-0 = test system: 786-0
K562 = test system: K562
SK-MEL-28 = test system: SK-MEL-28
COLO 205 = test system: COLO 205
LOX IMVI = test system: LOX IMVI
SNB-19 = test system: SNB-19
HCC 2998 = test system: HCC 2998
SN12C = test system: SN12C
A498 = test system: A498
Malme-3M = test system: Malme-3M
HOP-62 = test system: HOP-62
SK-MEL-2 = test system: SK-MEL-2
HOP-92 = test system: HOP-92

Measured: GI50

O=C1C(c2ccccc2)=[N+]([O-])c2cc([N+](=O)[O-])c(/C(Cl)=C/c3ccccc3)cc21
inactive: IGROV-1 23.2 µM | SK-OV-3 > 100 µM | SW-620 17.3 µM | EKVX 25.7 µM | 786-0 29.9 µM | K562 13.8 µM | SK-MEL-28 27.4 µM | COLO 205 17.3 µM | LOX IMVI 13.7 µM | SNB-19 31.3 µM

COC(=O)c1ccc(/N=N/N(C)CO)cc1
inactive: HCC 2998 > 100 µM | IGROV-1 > 100 µM | SK-OV-3 40.5 µM | SN12C > 100 µM | SW-620 > 100 µM | EKVX > 100 µM | A498 51.8 µM | 786-0 74 µM | Malme-3M > 100 µM | K562 68.4 µM | SK-MEL-28 > 100 µM | HOP-62 81.8 µM | COLO 205 > 100 µM | LOX IMVI > 100 µM | SK-MEL-2 > 100 µM | SNB-19 86.5 µM

COC(=O)C12CC(c3ccccc31)C1C(=O)OC(=O)C12 (stereo not given)
inactive: HCC 2998 > 100 µM | IGROV-1 > 100 µM | SN12C > 100 µM | SW-620 > 100 µM | EKVX > 100 µM | HOP-92 > 100 µM | 786-0 > 100 µM | Malme-3M > 100 µM | K562 > 100 µM | SK-MEL-28 > 100 µM | HOP-62 > 100 µM | COLO 205 > 100 µM | LOX IMVI > 100 µM | SK-MEL-2 > 100 µM | SNB-19 > 100 µM

C=C1CCCC2OC(OC)CCC12 (stereo not given)
inactive: HCC 2998 > 100 µM | IGROV-1 > 100 µM | SK-OV-3 > 100 µM | SN12C > 100 µM | SW-620 > 100 µM | EKVX > 100 µM | A498 > 100 µM | HOP-92 > 100 µM | 786-0 > 100 µM | Malme-3M > 100 µM | K562 > 100 µM | HOP-62 > 100 µM | COLO 205 > 100 µM | SK-MEL-2 > 100 µM | SNB-19 > 100 µM

CCC(COC(=O)CC[C@@H](NC(=O)C(C)NC(=O)C(C)OC1C(O)C(CO)OC(OCc2ccccc2)C1NC(C)=O)C(N)=O)NC1c2ccccc2Nc2cccc([N+](=O)[O-])c21 (stereo not given in full)
inactive: HCC 2998 > 100 µM | IGROV-1 > 100 µM | SK-OV-3 > 100 µM | SN12C > 100 µM | SW-620 > 100 µM | EKVX > 100 µM | HOP-92 > 100 µM | 786-0 67.1 µM | Malme-3M > 100 µM | K562 > 100 µM | SK-MEL-28 > 100 µM | HOP-62 > 100 µM | COLO 205 > 100 µM | LOX IMVI > 100 µM | SK-MEL-2 > 100 µM | SNB-19 > 100 µM

COC(c1cccc(C(O)(C(F)(F)F)C(F)(F)F)c1)(C(F)(F)F)C(F)(F)F
inactive: HCC 2998 8.79 µM | IGROV-1 20.2 µM | SK-OV-3 20.1 µM | SN12C 18.3 µM | SW-620 18.8 µM | EKVX 17.9 µM | A498 20.1 µM | 786-0 17.6 µM | Malme-3M 19.4 µM | SK-MEL-28 > 10 µM | HOP-62 19.1 µM | COLO 205 19.3 µM | LOX IMVI 17.5 µM | SK-MEL-2 18.2 µM | SNB-19 19.4 µM

Cn1c(=O)nc2n(-c3ccc(Br)cc3)c3ccccc3nc-2c1=O
inactive: HCC 2998 2.21 µM | IGROV-1 11.7 µM | SK-OV-3 27.8 µM | SN12C 4.97 µM | SW-620 2.06 µM | EKVX 1.94 µM | A498 11.2 µM | 786-0 3.74 µM | Malme-3M 3.61 µM | K562 5.43 µM | HOP-62 13.6 µM | COLO 205 2.64 µM | SK-MEL-2 9.33 µM | SNB-19 2.9 µM

O=C1c2ccccc2CC1C1(O)C(=O)Nc2c(Cl)cc(Cl)cc21 (stereo not given)
inactive: HCC 2998 > 100 µM | SK-OV-3 > 100 µM | SN12C > 100 µM | SW-620 35.2 µM | EKVX 67 µM | HOP-92 53.3 µM | 786-0 > 100 µM | Malme-3M 79.6 µM | K562 30.8 µM | SK-MEL-28 > 100 µM | HOP-62 99.5 µM | COLO 205 75.2 µM | LOX IMVI 61.8 µM | SK-MEL-2 97.5 µM | SNB-19 37.1 µM

Cc1nc(=O)n2c(c1C(=O)Nc1ccc(Cl)cc1)NCCC2
inactive: IGROV-1 > 100 µM | SK-OV-3 > 100 µM | SN12C > 100 µM | SW-620 > 100 µM | EKVX > 100 µM | HOP-92 > 100 µM | 786-0 > 100 µM | Malme-3M > 100 µM | K562 > 100 µM | SK-MEL-28 > 100 µM | HOP-62 > 100 µM | COLO 205 > 100 µM | LOX IMVI > 100 µM | SK-MEL-2 > 100 µM | SNB-19 32 µM

O=c1[nH]cc(COCC(F)(F)C(F)(F)C(F)(F)C(F)F)c(=O)[nH]1
inactive: HCC 2998 > 100 µM | IGROV-1 > 100 µM | SK-OV-3 > 100 µM | SN12C > 100 µM | SW-620 > 100 µM | EKVX > 100 µM | HOP-92 > 100 µM | 786-0 > 100 µM | Malme-3M > 100 µM | K562 > 100 µM | SK-MEL-28 > 100 µM | HOP-62 > 100 µM | COLO 205 > 100 µM | LOX IMVI > 100 µM | SK-MEL-2 > 100 µM | SNB-19 > 100 µM

Cc1ccccc1NC(=O)CSc1nnc(-c2ccc(/N=C\c3ccc(Cl)cc3)cc2)o1
inactive: SK-OV-3 > 100 µM | SN12C > 100 µM | SW-620 > 100 µM | EKVX > 100 µM | 786-0 > 100 µM | Malme-3M > 100 µM | K562 > 100 µM | SK-MEL-28 > 100 µM | HOP-62 > 100 µM | COLO 205 > 100 µM | LOX IMVI > 100 µM | SK-MEL-2 > 100 µM | SNB-19 > 100 µM

C=C(C(=C)P(=S)(c1ccccc1)c1ccccc1)P(=S)(c1ccccc1)c1ccccc1
inactive: HCC 2998 > 100 µM | IGROV-1 > 100 µM | SK-OV-3 > 100 µM | SN12C > 100 µM | SW-620 > 100 µM | EKVX > 100 µM | A498 > 100 µM | HOP-92 2.52 µM | 786-0 > 100 µM | Malme-3M 74.8 µM | K562 > 100 µM | SK-MEL-28 > 100 µM | HOP-62 > 100 µM | COLO 205 > 100 µM | SK-MEL-2 > 100 µM | SNB-19 > 100 µM

CCCCc1c2c(nc3c1CCCC3=O)CCCC2
inactive: HCC 2998 > 100 µM | IGROV-1 > 100 µM | SK-OV-3 > 100 µM | SN12C > 100 µM | SW-620 > 100 µM | EKVX > 100 µM | 786-0 > 100 µM | Malme-3M 50.2 µM | K562 > 100 µM | SK-MEL-28 > 100 µM | HOP-62 > 100 µM | COLO 205 > 100 µM | LOX IMVI > 100 µM | SNB-19 > 100 µM
